The values that follow come from ChEMBL document CHEMBL1201862, “PubChem BioAssay data set” (2004).

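Growth conditions: 96-well plates. Treatment: test compound, 48 hours, 5 concentrations. Analysis: linear interpolation between bracketing concentrations; unreached endpoints set to highest concentration. Abbreviation: GI50, concentration required for 50% inhibition of growth.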 Activity calls are given as the source filed them. No stated cut-off is given here; in the data, active = GI50 up to about 1.1 µM and inactive = higher.

Some test systems named below: MDA-MB-231; OVCAR-5; SK-MEL-28; RPMI-8226; HL-60; MCF7; COLO 205; RXF 393; SR; UACC-62; A549; NCI-H23; K562; CAKI-1; ACHN; HCC 2998; SK-MEL-2; SF-295; SF-268; OVCAR-4.
Assay in all cases: inhibition of tumour cell growth, NCI panel, 48 h

As for `O=C1Nc2cccc(Cl)c2/C1=C\c1c(Cl)nc2sccn12`, the GI50 in the assay with MDA-MB-231 was 16.3 µM (inactive); with OVCAR-5, > 100 µM (inactive); in the assay on SK-MEL-28, > 100 µM (inactive); in the assay with RPMI-8226 it was > 100 µM (inactive); in the assay on HL-60, > 100 µM (inactive); in the assay with MCF7, > 100 µM (inactive). Also, the GI50 in the assay with COLO 205 was > 100 µM (inactive); with RXF 393, 13.7 µM (inactive); in the assay with SR, > 100 µM (inactive); in the assay on UACC-62 it was 31.5 µM (inactive); in the assay on A549 it was > 100 µM (inactive); with NCI-H23, 21.7 µM (inactive). The GI50 in the assay with K562 was > 100 µM (inactive); with CAKI-1, 43.2 µM (inactive); with ACHN, 12.2 µM (inactive); in the assay on HCC 2998, > 100 µM (inactive); in the assay with SK-MEL-2, 13.5 µM (inactive); in the assay with SF-295, 28.2 µM (inactive). Further, the GI50 with SF-268 is 18.9 µM (inactive).

Regarding `Cc1ccc(C2NC(=N)NC3=C2CCOc2c3ccc3ccccc23)cc1` (stereo not drawn), the GI50 was 3.75 µM (inactive) in the assay with MDA-MB-231; 41.6 µM (inactive) in the assay with OVCAR-5; 5.55 µM (inactive) in the assay with SK-MEL-28; 4.42 µM (inactive) in the assay on RPMI-8226; 2.96 µM (inactive) with HL-60; 4.91 µM (inactive) with MCF7. The GI50 was 20.8 µM (inactive) with COLO 205; 31.8 µM (inactive) with RXF 393; 0.466 µM (active) in the assay on SR; 2.58 µM (inactive) in the assay on UACC-62; 9.38 µM (inactive) with OVCAR-4; 14.6 µM (inactive) in the assay with A549. Also, the GI50 was 34.9 µM (inactive) in the assay with NCI-H23; 2.19 µM (inactive) in the assay with K562; 3.66 µM (inactive) in the assay on CAKI-1; 7.16 µM (inactive) with HCC 2998; 36.7 µM (inactive) in the assay with SK-MEL-2; 16 µM (inactive) in the assay with SF-295. Besides, in the assay with SF-268, the GI50 is 24.7 µM (inactive).

In the case of `Cc1ccc(/C=N\NC(=O)c2ccncc2)s1`, the GI50 in the assay on MDA-MB-231, with OVCAR-5, with SK-MEL-28, in the assay on RPMI-8226, in the assay on HL-60 and in the assay with MCF7 was > 100 µM (inactive) in each case. Besides, the GI50 in the assay with COLO 205, with RXF 393, in the assay with SR, with UACC-62, with OVCAR-4 and in the assay on A549 was > 100 µM (inactive) throughout. Moreover, the GI50 in the assay on NCI-H23, in the assay with K562, with CAKI-1, with ACHN, in the assay on HCC 2998 and in the assay with SK-MEL-2 was > 100 µM (inactive) in each case. Moreover, the GI50 with SF-295 and with SF-268 was > 100 µM (inactive) throughout.

As to `CC1OC(n2cc(F)c(=O)[nH]c2=O)C(O[Si](C)(C)C(C)(C)C)C1O[Si](C)(C)C(C)(C)C` (stereo not drawn), the GI50 was 5.78 µM (inactive) with MDA-MB-231; 15.2 µM (inactive) with OVCAR-5; 11.6 µM (inactive) in the assay on RPMI-8226; 5.93 µM (inactive) with HL-60; 6.76 µM (inactive) in the assay with MCF7; 14.4 µM (inactive) in the assay on COLO 205. In addition, the GI50 was 14 µM (inactive) in the assay with RXF 393; 6.03 µM (inactive) in the assay with SR; 14.8 µM (inactive) in the assay with UACC-62; 6.41 µM (inactive) with OVCAR-4; 15.8 µM (inactive) in the assay on A549; 10.6 µM (inactive) in the assay with NCI-H23. In addition, the GI50 is 15.4 µM (inactive) with K562; 13.6 µM (inactive) in the assay with CAKI-1; 14 µM (inactive) in the assay with ACHN; 13.4 µM (inactive) in the assay with HCC 2998; 16.3 µM (inactive) with SK-MEL-2; 11.5 µM (inactive) in the assay on SF-295. Further, the GI50 in the assay with SF-268 was 12 µM (inactive).

As for `Cc1cc(C#N)c[n+](C)c1`, the GI50 in the assay with MDA-MB-231, with OVCAR-5, with SK-MEL-28, in the assay on HL-60, with MCF7 and with COLO 205 was > 100 µM (inactive) each time. Moreover, the GI50 in the assay on RXF 393, in the assay on SR, in the assay with UACC-62, in the assay with OVCAR-4, with A549 and with NCI-H23 was > 100 µM (inactive) each time. In addition, the GI50 in the assay on K562, in the assay with CAKI-1, with ACHN, in the assay on HCC 2998, with SK-MEL-2 and in the assay with SF-295 was > 100 µM (inactive) each time. Further, the GI50 in the assay on SF-268 was > 100 µM (inactive).

As to `CCCCNc1nc(NC2OCC(OC(C)=O)C(OC(C)=O)C2OC(C)=O)c(N=O)c(=O)n1C` (stereo not drawn), the GI50 in the assay on MDA-MB-231, in the assay on OVCAR-5, in the assay on SK-MEL-28, with RPMI-8226, in the assay on HL-60 and with MCF7 was > 10 µM (inactive) throughout. The GI50 in the assay with COLO 205, with RXF 393, in the assay on SR, in the assay with UACC-62, in the assay on OVCAR-4 and in the assay with A549 was > 10 µM (inactive) throughout. In addition, the GI50 in the assay on NCI-H23, in the assay with CAKI-1, in the assay with ACHN, in the assay with HCC 2998, in the assay with SK-MEL-2 and with SF-295 was > 10 µM (inactive) throughout. Also, in the assay with SF-268, the GI50 is > 10 µM (inactive).

On to `CC1=C(OC2OC(CO)C(O)C(O)C2O)C(=O)C[C@H]2C1=CC[C@@H]1[C@@]2(C)C(=O)C[C@]2(C)[C@@H]([C@@](C)(O)C(=O)CCC(C)(C)O)[C@H](O)C[C@@]12C` (stereo partly drawn), for which the GI50 in the assay on MDA-MB-231, in the assay with OVCAR-5, with SK-MEL-28, with HL-60, with MCF7 and with COLO 205 was > 100 µM (inactive) throughout. Further, the GI50 with RXF 393, in the assay on SR, in the assay on UACC-62, with OVCAR-4, with A549 and in the assay with NCI-H23 was > 100 µM (inactive) throughout. For the same compound, the GI50 with K562, in the assay on CAKI-1, with ACHN, in the assay on HCC 2998, in the assay on SK-MEL-2 and in the assay on SF-295 was > 100 µM (inactive) throughout. The GI50 in the assay on SF-268 was > 100 µM (inactive).

For `Cc1ccc2nc(Cl)c(/C=N/N3C(=O)/C(=C/Cc4ccco4)N=C3c3ccccc3)cc2c1`, the GI50 in the assay on MDA-MB-231 is 67.8 µM (inactive); with OVCAR-5 it was > 74.6 µM (inactive); in the assay on SK-MEL-28 it was 58.7 µM (inactive); with RPMI-8226, 27 µM (inactive); in the assay on HL-60 it was 34.1 µM (inactive); with MCF7 it was 40.3 µM (inactive). Also, the GI50 in the assay on COLO 205 was 51.5 µM (inactive); with RXF 393 it was 2.54 µM (inactive); with SR, > 69.3 µM (inactive); with UACC-62, 60.5 µM (inactive); with OVCAR-4, 51.6 µM (inactive); with A549, 36.4 µM (inactive). Also, the GI50 was > 49.2 µM (inactive) in the assay with NCI-H23; 38.1 µM (inactive) in the assay with K562; 5.04 µM (inactive) with CAKI-1; 72.3 µM (inactive) in the assay with ACHN; 28.6 µM (inactive) in the assay with HCC 2998; 56.6 µM (inactive) in the assay on SK-MEL-2. The GI50 in the assay with SF-295 is > 82.8 µM (inactive); in the assay with SF-268 it was 31.3 µM (inactive).

For the compound `CC1=NN=C(N)N/C1=C\C(Sc1ccc(Cl)cc1)c1ccc(Cl)cc1Cl` (stereo not drawn), the GI50 with MDA-MB-231 is 21.1 µM (inactive); in the assay on OVCAR-5 it was 15.9 µM (inactive); in the assay on SK-MEL-28, 21.8 µM (inactive); in the assay with RPMI-8226 it was 14.1 µM (inactive); with HL-60, 3.74 µM (inactive); in the assay with MCF7 it was 3.78 µM (inactive). For the same compound, the GI50 with COLO 205 is 18.9 µM (inactive); in the assay with RXF 393 it was 16.3 µM (inactive); with SR it was > 100 µM (inactive); in the assay on UACC-62 it was 14.7 µM (inactive); with OVCAR-4, 17.1 µM (inactive); in the assay with A549, 8.34 µM (inactive). In addition, the GI50 in the assay on NCI-H23 was 13.1 µM (inactive); with K562, 1.28 µM (inactive); in the assay on CAKI-1 it was 25.4 µM (inactive); with ACHN it was 14.2 µM (inactive); with HCC 2998 it was 4.67 µM (inactive); in the assay on SK-MEL-2, 16.4 µM (inactive). In addition, the values for the GI50 in the assay on SF-295 and in the assay on SF-268 were 16.9 µM (inactive) and 12.6 µM (inactive), respectively.

For the compound `C[C@@]12C[C@@H](c3ccccc3O1)N1CCSC1=N2`, the GI50 with MDA-MB-231, with OVCAR-5, with SK-MEL-28, in the assay with RPMI-8226, in the assay on HL-60 and in the assay with MCF7 was > 100 µM (inactive) in each case. For the same compound, the GI50 in the assay with COLO 205, in the assay with RXF 393, with SR, in the assay on UACC-62, in the assay with OVCAR-4 and with NCI-H23 was > 100 µM (inactive) each time. In addition, the GI50 in the assay with K562, in the assay on CAKI-1, in the assay on ACHN, in the assay on HCC 2998, in the assay on SK-MEL-2 and in the assay on SF-295 was > 100 µM (inactive) each time. In the assay with SF-268, the GI50 was > 100 µM (inactive).
